Key:
MCF7 = assay: Cytotoxicity against human MCF7 cells after 48 hrs by Sulforhodamine B assay; assay type: functional
HCT-116 = assay: Cytotoxicity against human HCT116 cells after 48 hrs by Sulforhodamine B assay; assay type: functional
Histone deacetylase = assay: Inhibition of HDAC in human HeLa cells using Fluor de Lys as substrate by fluorescence assay; assay type: cell-based
[1] = molecular target: T1, Histone deacetylase (Homo sapiens) (UniProt Q13547+O15379+Q9UBN7+Q92769+Q9UQL6+Q8WUI4+Q9BY41+Q96DB2+P56524+Q9UKV0+Q969S8); conditions: HeLa, at 10 µM
Description: Inhibition of HDAC in human HeLa cells using Fluor de Lys as substrate at 10 uM by fluorescence assay

[2] = molecular target: T1, Histone deacetylase (Homo sapiens); conditions: HeLa, at 1 µM
Description: Inhibition of HDAC in human HeLa cells using Fluor de Lys as substrate at 1 uM by fluorescence assay

## CN(C)c1nc2c(s1)Cc1cc(/C=C/C(=O)NO)ccc1-2
MCF7; Homo sapiens, MCF7, 48 h
  GI50: 1260 nM
HCT-116; Homo sapiens, HCT-116, 48 h
  GI50: 1620 nM
Histone deacetylase
  IC50: 0.157 µM
[1]
  inhibition: 97%
[2]
  inhibition: 71.7%

## COCCNc1nc2c(s1)Cc1cc(/C=C/C(=O)NO)ccc1-2
MCF7; Homo sapiens, MCF7, 48 h
  GI50: 869 nM
HCT-116; Homo sapiens, HCT-116, 48 h
  GI50: 535 nM
Histone deacetylase
  IC50: 0.14 µM
[1]
  inhibition: 97.4%
[2]
  inhibition: 71.6%

## O=C(/C=C/c1ccc2c(c1)Cc1sc(Nc3cccnc3)nc1-2)NO
MCF7; Homo sapiens, MCF7, 48 h
  GI50: 1580 nM
HCT-116; Homo sapiens, HCT-116, 48 h
  GI50: 2430 nM
Histone deacetylase
  IC50: 0.298 µM
[1]
  inhibition: 96.5%
[2]
  inhibition: 62%

## O=C(/C=C/c1ccc2c(c1)Cc1sc(Nc3cccc(C(F)(F)F)c3)nc1-2)NO
[1]
  inhibition: 86.3%
[2]
  inhibition: 22.9%

## O=C(/C=C/c1ccc2c(c1)Cc1sc(Nc3ccc(Cl)cc3)nc1-2)NO
[1]
  inhibition: 95.3%
[2]
  inhibition: 35.8%

## Cc1ccc(Nc2nc3c(s2)Cc2cc(/C=C/C(=O)NO)ccc2-3)cc1
[1]
  inhibition: 95.9%
[2]
  inhibition: 7.71%

## COc1ccc(Nc2nc3c(s2)Cc2cc(/C=C/C(=O)NO)ccc2-3)cc1
[1]
  inhibition: 95.5%
[2]
  inhibition: 45.1%

## Cc1cc(C)c(Nc2nc3c(s2)Cc2cc(/C=C/C(=O)NO)ccc2-3)c(C)c1
[1]
  inhibition: 90%
[2]
  inhibition: 28.1%

## O=C(/C=C/c1ccc2c(c1)Cc1sc(Nc3ccc(F)cc3F)nc1-2)NO
[1]
  inhibition: 92.3%
[2]
  inhibition: 21.6%

## O=C(/C=C/c1ccc2c(c1)Cc1sc(NCCN3CCOCC3)nc1-2)NO
MCF7; Homo sapiens, MCF7, 48 h
  GI50: 2060 nM
HCT-116; Homo sapiens, HCT-116, 48 h
  GI50: 1320 nM
Histone deacetylase
  IC50: 0.164 µM
[1]
  inhibition: 97.2%
[2]
  inhibition: 66.9%

## O=C(/C=C/c1ccc2c(c1)Cc1sc(Nc3ccccc3)nc1-2)NO
[1]
  inhibition: 95.3%
[2]
  inhibition: 20.7%

## CNc1nc2c(s1)Cc1cc(/C=C/C(=O)NO)ccc1-2
MCF7; Homo sapiens, MCF7, 48 h
  GI50: 1390 nM
HCT-116; Homo sapiens, HCT-116, 48 h
  GI50: 1860 nM

## COc1ccc(CNc2nc3c(s2)Cc2cc(/C=C/C(=O)NO)ccc2-3)cc1
[1]
  inhibition: 86.2%
[2]
  inhibition: 10.7%

## CCCNc1nc2c(s1)Cc1cc(/C=C/C(=O)NO)ccc1-2
[1]
  inhibition: 93.3%
[2]
  inhibition: 52.7%

## CC(C)(C)Nc1nc2c(s1)Cc1cc(/C=C/C(=O)NO)ccc1-2
[1]
  inhibition: 95.3%
[2]
  inhibition: 39.8%

## O=C(/C=C/c1ccc2c(c1)Cc1sc(Nc3ccccn3)nc1-2)NO
[1]
  inhibition: 77.7%
[2]
  inhibition: 25.5%

## O=C(/C=C/c1ccc2c(c1)Cc1sc(NC3CCCCC3)nc1-2)NO
[1]
  inhibition: 93.6%
[2]
  inhibition: 24.8%

## CC(C)Nc1nc2c(s1)Cc1cc(/C=C/C(=O)NO)ccc1-2
MCF7; Homo sapiens, MCF7, 48 h
  GI50: 1210 nM
HCT-116; Homo sapiens, HCT-116, 48 h
  GI50: 2100 nM
Histone deacetylase
  IC50: 0.214 µM
[1]
  inhibition: 97.5%
[2]
  inhibition: 61.3%

## O=C(CCCCCCC(=O)Nc1ccccc1)NO [VORINOSTAT]
MCF7
  GI50: 689 nM
HCT-116
  GI50: 878 nM

## O=C(/C=C/c1ccc2c(c1)Cc1sc(Nc3ccncc3)nc1-2)NO
[1]
  inhibition: 93.9%
[2]
  inhibition: 10.2%
